# Tests used:
# Assay type in all cases: cell-based
# [1] = target: T1, Solute carrier family 2, facilitated glucose transporter member 5 (Homo sapiens, UniProt P22732); test: Inhibition of GLUT5-mediated [14C]D-fructose uptake in human MCF7 cells by liquid scintillation counting
# T1 sequence (P22732 whole entry): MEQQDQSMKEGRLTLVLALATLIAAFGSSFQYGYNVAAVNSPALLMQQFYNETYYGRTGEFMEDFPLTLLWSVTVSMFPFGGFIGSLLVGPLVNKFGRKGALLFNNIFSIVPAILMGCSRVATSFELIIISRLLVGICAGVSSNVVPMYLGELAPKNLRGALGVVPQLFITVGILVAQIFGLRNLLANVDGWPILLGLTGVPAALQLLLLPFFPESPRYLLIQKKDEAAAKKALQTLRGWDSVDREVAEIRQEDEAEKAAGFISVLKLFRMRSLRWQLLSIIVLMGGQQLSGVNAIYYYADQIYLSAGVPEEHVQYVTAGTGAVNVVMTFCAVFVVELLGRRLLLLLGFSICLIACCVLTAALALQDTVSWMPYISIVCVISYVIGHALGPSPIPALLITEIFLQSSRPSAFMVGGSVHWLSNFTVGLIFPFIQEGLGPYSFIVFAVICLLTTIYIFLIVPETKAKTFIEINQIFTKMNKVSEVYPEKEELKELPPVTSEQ
# [2] = target: T2, Solute carrier family 2, facilitated glucose transporter member 2 (Homo sapiens, UniProt P11168); test: Inhibition of GLUT2-mediated [14C]D-glucose uptake in human MCF7 cells by liquid scintillation counting
# T2 sequence (P11168 whole entry): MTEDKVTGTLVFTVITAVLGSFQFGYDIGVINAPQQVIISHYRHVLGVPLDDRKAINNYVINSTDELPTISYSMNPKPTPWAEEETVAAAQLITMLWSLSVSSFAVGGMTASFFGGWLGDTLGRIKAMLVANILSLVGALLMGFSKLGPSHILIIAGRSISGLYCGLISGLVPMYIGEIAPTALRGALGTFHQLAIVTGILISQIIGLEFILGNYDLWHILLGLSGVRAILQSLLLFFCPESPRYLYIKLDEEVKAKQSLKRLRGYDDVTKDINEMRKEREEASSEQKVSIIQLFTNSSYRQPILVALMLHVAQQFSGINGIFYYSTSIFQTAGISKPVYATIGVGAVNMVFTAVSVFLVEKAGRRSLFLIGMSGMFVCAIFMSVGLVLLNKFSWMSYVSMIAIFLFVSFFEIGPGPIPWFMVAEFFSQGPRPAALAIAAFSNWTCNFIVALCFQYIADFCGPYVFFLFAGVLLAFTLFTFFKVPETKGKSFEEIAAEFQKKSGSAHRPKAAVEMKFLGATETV
# [3] = target: T2, Solute carrier family 2, facilitated glucose transporter member 2; test: Inhibition of GLUT2-mediated [14C]D-glucose uptake in human MDA-MB-231 cells by liquid scintillation counting
# [4] = target: T1, Solute carrier family 2, facilitated glucose transporter member 5; test: Inhibition of GLUT5-mediated [14C]D-fructose uptake in human MDA-MB-231 cells by liquid scintillation counting
compound,measurement,setting,value
OCC1(O)O[C@H](CF)[C@@H](O)[C@@H]1O (some centres undefined),Ki,[1],154 µM
same,Ki,[2],916 µM
same,Ki,[3],6210 µM
same,Ki,[4],330 µM

# From ChEMBL document CHEMBL1155275, “Synthesis and characterization of 6-deoxy-6-fluoro-D-fructose as a potential compound for imaging breast cancer with PET” (Bioorg Med Chem, 2009)
